In patent publication US11697689B2, “Use of antibody against O-acetylated GD2 ganglioside to improve the therapeutic potential of drugs” (OGD2 PHARMA, priority 2016, dated 2023):
Like-named read-outs stand apart in the source and are kept apart here.

Tests used:
[1] = test system: LAN-1 cells; test: Incorporation of anti-cancer agents in cells, flow cytometry; assay type: cell-based, human; conditions: 5-FU and cisplatin 1.52 μM, doxorubicin […], mAb 8B6 40 μg/ml, 30 minutes at 37° C.
Protocol: FIG. 3: Internalization of 5-FU, Cisplatin and doxorubicin in neuroblastoma cells. LAN-1 cells were treated with 5-FU (1.52 μM)—Panel A, or Cisplatin (1.52 μM)—Panel B, or doxorubicin (4.7 μM)—Panels C and D with combinations of isotype-matched negative control mouse IgG3 (40 μg/ml) or anti-OAcGD2 mAb 8B6, anti-OAcGD2 mAb c8B6.14b, anti-OAcGD2 mAb c8B6.15b (40 μg/ml). Anti-cancer agents and mAb were incubated during 30 minutes at 37° C. Neuroblastoma cells were fixed with PFA 4% before FACS acquisition. Positive control was performed by treatment of fixed LAN-1 cells with saponin 0.05% in combination with anti-cancer agents during 30 minutes. Incorporation of anti-cancer agents in tumor cells was assessed by flow cytometry (excitation with a 535 nm laser) and results are expressed in percentage of cells having incorporated anti-cancer agent in total cell population.
Combinations of anti-OAcGD2 mAb 8B6 with other anti-cancer agents were also assayed on LAN-1 neuroblastoma cell line. In this experiment, incorporation of 5-FU, Cisplatin and doxorubicin within the cells in the presence of mAb 8B6 or CTRL-(IgG) was detected using flow cytometry (excitation with a 535 nm laser). Anti-cancer agents and mAb were incubated during 30 minutes at 37° C.

[2] = test system: DUASOII glioblastoma primary cells; test: MTT assay, temozolomide with or without mAb 8B6; assay type: cell-based; conditions: Homo sapiens, temozolomide alone, 72 hours
Protocol: (§1) Tumor specimens were collected from patients with a histologic diagnosis of GBM. Tumors were harvested at the time of surgical resection and immediately put into culture after dissociation of the tumors using the gentleMACs™ Dissociator (Miltenyi) according to the manufacturer's instructions.
(§2) Equivalent culture media volume was added to control wells. […] Cells were exposed to test agents for 72 hours. Following the exposure to test agents, 15 μl of MTT reagent was added to each well.
(§3) Cell viability was measured using the MTT assay and half maximal effective concentration (EC50) was calculated as previously disclosed.

[3] = test system: GUITh glioblastoma primary cells; test: MTT assay, temozolomide with or without mAb 8B6; assay type: cell-based; conditions: Homo sapiens, temozolomide alone, 72 hours
Protocol: as §1, §2, §3

[4] = test system: DUGAn glioblastoma primary cells; test: MTT assay, temozolomide with or without mAb 8B6; assay type: cell-based; conditions: Homo sapiens, temozolomide alone, 72 hours
Protocol: as §1, §2, §3

[5] = test system: HARCI glioblastoma primary cells; test: MTT assay, temozolomide with or without mAb 8B6; assay type: cell-based; conditions: Homo sapiens; HARCl; temozolomide alone; 72 hours
Protocol: as §1, §2, §3

[6] = test system: AMBMa glioblastoma primary cells; test: MTT assay, temozolomide with or without mAb 8B6; assay type: cell-based; conditions: Homo sapiens, temozolomide alone, 72 hours
Protocol: as §1, §2, §3

[7] = test system: GLIO 5 glioblastoma primary cells; test: MTT assay, temozolomide with or without mAb 8B6; assay type: cell-based; conditions: Homo sapiens, temozolomide alone, 72 hours
Protocol: as §1, §2, §3

[8] = test system: NXS2 cells; test: MTT cell proliferation assay, drug with or without mAb 8B6; assay type: cell-based, murine; conditions: for EC50: Mus musculus, 48 hours
Protocol: (§4) The antiproliferative activity of the anti-cancer agents was evaluated using the MIT Cell Proliferation Assay Kit (Roche Diagnostic, Indianapolis, USA). The MTT assay is based on the reduction of yellow tetrazolium MIT (3-(4,5-dimethylthiazolyl-2)-2,5-diphenyltetrazolium bromide) by metabolically active cells forming purple formazan crystals. The purple formazan is solubilized with detergent and quantified spectrophotometrically at 570 nm.
(§5) Cells in the log phase of growth were seeded into 96-well (5×10^3 for LAN-1 and NXS2 cells; 1×10^4 for IMR5 and LAN-5 cells) treated plates in 100 μl of complete media. The cells were allowed to attach during an overnight incubation prior to treating with test agents. […] Equivalent culture media volume was added to control wells. Three conditions were used: anti-cancer agent alone, mAb 8B6 alone, mAb 8B6+anti-cancer agent. Cells were exposed to test agents for 48 hours. Following the exposure to test agents, 15 μl of MIT reagent was added to each well. The plates were returned to the incubator for four hours. Following the incubation period, kit supplied detergent reagent (100 μl) was added to all wells. The plates were wrapped in plastic wrap to prevent evaporation and allowed to sit at room temperature in the dark overnight. The absorbance at 570 nm was measured the following day using a iMark™ Microplate Absorbance Reader plate reader (Bio-Rad). Assays were performed in quadruplicate and experiments were repeated three times. […] The median-effect equation used by CompuSyn® software derived from the mass-action law principle at equilibrium steady state. […] Percent of Control values were calculated by dividing the absorbance values for each test well by the No Drug Control average and multiplying by 100.
(§6) Combination data was analyzed using CompuSyn® software to calculate Combination Index values to assess synergy. […] The dosage, fraction affected and molar ratio of compounds tested in combination were entered into the CompuSyn® software for evaluation of the presence/absence of synergy. CompuSyn® assigns a Combination Index value which rates the level of compounds' inhibiting 50% of the cell proliferation. […] See Chou, PHARMACOL.
(§7) NXS2 cells were grown in DMEM 4.5 g/L de glucose with 10% heat-inactivated fetal calf serum, 2 mM L-Glutamine, 100 units/ml penicillin, and 100 μg/ml streptomycin, at 37° C. in 5% CO2.

[9] = test system: LAN-5 cells; test: as above; assay type: cell-based, human; conditions: for EC50: Homo sapiens, 48 hours
Protocol: Equivalent culture media volume was added to control wells. […] Cells were exposed to test agents for 48 hours.

[10] = test system: NXS2 cells; test: OAcGD2 expression (mAb 8B6 binding) after drug exposure, flow cytometry; conditions: isotretinoin 75, topotecan 0.5, doxorubicin 3 μM (Table 1), mean ± SD
[11] = test system: IMR5 cells; test: MTT cell proliferation assay, drug with or without mAb 8B6; assay type: cell-based, human; conditions: for EC50: Homo sapiens, 48 hours
Protocol: as §4, §5, §6, §7

[12] = test system: LAN-1 cells; test: as above; assay type: cell-based, human; conditions: for EC50: Homo sapiens, 48 hours
Protocol: as §4, §5, §6, §7

[13] = test system: IMR5 cells; test: OAcGD2 expression (mAb 8B6 binding) after drug exposure, flow cytometry; conditions: isotretinoin 40, topotecan 1, doxorubicin 7 μM (Table 1), mean ± SD, n = 3, untreated 14.6 ± 0.4
[14] = test system: LAN-1 cells; test: as above; conditions: isotretinoin 40, topotecan 5, doxorubicin 3 μM (Table 1), mean ± SD, n = 3, untreated 12.1 ± 0.1
[15] = Systemic tolerability, body weight over the treatment period; assay type: in vivo, A/J mice; conditions: same groups and doses as the NXS2 liver metastasis study
Excerpt: Mean weight of group of mice (n=10) presented in FIG. 6 at day 0 was defined as 100% weight. Weight in each group remained stable for the period of treatment. Δ, mice treated with mAb 8B6; ◯, mice treated with anti-cancer agent; □, mice treated with chemotherapeutic drug plus mAb 8B6.
Weight loss is used as a sensitive marker for health monitoring. We therefore performed a parallel analysis of the body weight over the treatment period. […] The body-weight difference between the two groups treated with doxorubicin compared to the non-doxorubicin group, however, fails to be significant during the treatment period (p>0.05).

[16] = test system: NXS2 neuroblastoma experimental liver metastasis; test: Murine NXS2 neuroblastoma experimental liver metastasis model; assay type: in vivo, A/J mice; conditions: day 28 after NXS2 inoculation; mAb 8B6 150 μg cumulative i.v.; isotretinoin 10 mg/kg per os; topotecan 0.36 mg/kg i.p.; doxorubicin 1 mg/kg i.p.; vehicle 2.5±0.18 g; mean±SEM
Protocol: Mice (n=10/group) were inoculated with 2.5×10^5 NXS2 mouse neuroblastoma cells by i.v. injections. 8B6 mAb treatment was started on day 3 after tumor cell inoculation twice a week for 3 consecutive weeks (cumulative dose=150 μg, A-C). All chemotherapeutic treatments were started at day 10 post-tumor inoculation. Panel A: isotretinoin was given at 10 mg/kg, per os, five times weekly for 2 weeks. […] Panel C: doxorubicin was given by i.p. injections at 1 mg/kg five times weekly for 2 weeks. Mice were euthanized 28 days post-tumor inoculation. Anti-tumor efficacy was evaluated by determining the liver weight on the fresh specimen compared to the mice treated with vehicle only. The liver weight is indicative of hepatic metastasis number. The y-axis starts at 0.8 g corresponding to the average normal liver weight. Data are presented as the mean±SEM.
We inoculated 2.5×10^5 tumor cells by tail vein in PBS. […] Anti-OAcGD2 mAb 8B6 treatment was started at Day 3 after tumor cells injection. Mice received by i.v. injection twice a week 25 μg mAb 8B6 for 3 consecutive weeks; (day 3, 7, 10, 14, 17 and 21; total dose=150 μg). Isotretinoin was given orally diluted in Ora-Plus© at 10 mg/kg daily for 2 consecutive weeks (on days 10-14 and 17-21). […] Doxorubicin was given by i.p. injection at 1 mg/kg daily for two weeks (on days 10-14 and 17-21). Mice were sacrificed after 28 days post inoculation, and anti-tumor efficacy was evaluated by liver weight of the fresh specimen as well as hepatic metastasis number. • 6.2—Results
Anti-cancer agents were given at low doses as previously reported in the literature in order to minimize related side effects. Three days after i.v. NSX2 tumor cell inoculation, ten mice were assigned to treatment with single agent, or combination of mAb 8B6 and anti-cancer agents as described previously. On day 28 after tumor cell inoculation, we determined the number of liver metastases and the liver weight after mice euthanasia.

[17] = test system: LAN-5 cells; test: OAcGD2 expression (mAb 8B6 binding) after drug exposure, flow cytometry; conditions: isotretinoin 8, topotecan 1, doxorubicin 5 μM (Table 1), mean ± SD, n = 3, untreated 13.2 ± 0.7
[18] = test system: neuroblastoma cell lines NXS2, IMR5, LAN-1 and LAN-5; conditions: NXS2, IMR5, LAN-1, LAN-5
Protocol: as §4
Cells in the log phase of growth were seeded into 96-well (5×10^3 for LAN-1 and NXS2 cells; 1×10^4 for IMR5 and LAN-5 cells) treated plates in 100 μl of complete media. The cells were allowed to attach during an overnight incubation prior to treating with test agents. […] Equivalent culture media volume was added to control wells. Three conditions were used: anti-cancer agent alone, mAb 8B6 alone, mAb 8B6+anti-cancer agent. Cells were exposed to test agents for 48 hours. Following the exposure to test agents, 15 μl of MIT reagent was added to each well. […] The absorbance at 570 nm was measured the following day using a iMark™ Microplate Absorbance Reader plate reader (Bio-Rad). […] Percent of Control values were calculated by dividing the absorbance values for each test well by the No Drug Control average and multiplying by 100.
Combination data was analyzed using CompuSyn® software to calculate Combination Index values to assess synergy. […]

[19] = with mAb 8B6 40 μg/ml, read-out: EC50 with mAb 8B6
[20] = LA-N-5, drug alone, read-out: EC50
[21] = LA-N-5, with mAb 8B6 40 μg/ml, read-out: EC50 with mAb 8B6
[22] = IMR-5, drug alone, read-out: EC50
[23] = IMR-5, with mAb 8B6 40 μg/ml, read-out: EC50 with mAb 8B6
[24] = LAN1, drug alone, read-out: EC50
[25] = LAN1, with mAb 8B6 40 μg/ml, read-out: EC50 with mAb 8B6

Compound	cells positive for the anti-cancer agent when incubated with mAb 8B6 versus agent alone and CTRL-(IgG) [1]	EC50 ([8]; drug alone, read-out: EC50)	EC50 [8, 19]	EC50 [9, 20]	EC50 [9, 21]	Expression level of OAcGD2 (MFI ratio mAb 8B6 / mAb 7H2) after 48 hours exposure ([10]; n = 3, untreated 7.3 ± 0.9)	EC50 [11, 22]	EC50 [11, 23]	EC50 [12, 24]	EC50 [12, 25]	Expression level of OAcGD2 (MFI ratio mAb 8B6 / mAb 7H2) after 48 hours exposure [13]	Expression level of OAcGD2 (MFI ratio mAb 8B6 / mAb 7H2) after 48 hours exposure [14]	body weight over the treatment period [15]	mean liver weight [16]	Expression level of OAcGD2 (MFI ratio mAb 8B6 / mAb 7H2) after 48 hours exposure [17]	further results
N.N.[Cl][Pt][Cl] [cisplatin]	more cells were positive	–	–	–	–	–	–	–	–	–	–	–	–	–	–	–
O=c1[nH]cc(F)c(=O)[nH]1 [5-FU, 5-Fluorouracil]	more cells were positive	–	–	–	–	–	–	–	–	–	–	–	–	–	–	–
Cn1nnc2c(C(N)=O)ncn2c1=O [temozolomide]	–	–	–	–	–	–	–	–	–	–	–	–	–	–	–	EC50 [2]: 584 µM; EC50 [3]: 3160 µM; EC50 [4]: 1120 µM; EC50 [5]: 13100 µM; EC50 [6]: 784 µM; EC50 [7]: 1590 µM
CC1=C(/C=C/C(C)=C/C=C/C(C)=C\C(=O)O)C(C)(C)CCC1 [Isotretinoin, isotretinoin]	–	75.7 µM	59.3 µM	37.2 µM	31.3 µM	7.5 ± 1.1	32.9 µM	24 µM	7.4 µM	4.3 µM	19.2 ± 0.8	12.0 ± 0.1	no loss of body weight	2.0 ± 0.24 g	16.8 ± 0.7	Expression level of OAcGD2 (MFI ratio mAb 8B6 / mAb 7H2) after 48 hours exposure ([10]; n = 3, untreated 7.3 ± 0.9, listed as isotretinoin): remained unchanged
COc1cccc2c1C(=O)c1c(O)c3c(c(O)c1C2=O)C[C@@](O)(C(=O)CO)C[C@@H]3O[C@H]1C[C@H](N)[C@H](O)[C@H](C)O1 [Doxorubicin, doxorubicin]	more cells were positive	2.75 µM	0.016 µM	2.09 µM	0.13 µM	6.48 ± 2.28	6.3 µM	0.01 µM	4.67 µM	0.014 µM	15.24 ± 0.21	13.76 ± 1.8	a loss of body weight after day 17	1.75 ± 0.09 g	14.36 ± 1.4	median combination index values across the tested neuroblastoma cell lines [18]: ≤ 0.30; Combination index 50 Values ([8]; CompuSyn, below 1 = synergy): 0.30; Combination index 50 Values ([9]; CompuSyn, below 1 = synergy): 0.16; Expression level of OAcGD2 (MFI ratio mAb 8B6 / mAb 7H2) after 48 hours exposure ([10]; n = 3, untreated 7.3 ± 0.9, listed as doxorubicin): remained unchanged; Combination index 50 Values ([11]; CompuSyn, below 1 = synergy): 0.10; Combination index 50 Values ([12]; CompuSyn, below 1 = synergy): 0.05
CC[C@@]1(O)C(=O)OCc2c1cc1n(c2=O)Cc2cc3c(CN(C)C)c(O)ccc3nc2-1 [Topotecan, topotecan]	–	0.45 µM	0.15 µM	12.4 µM	0.004 µM	–	0.011 µM	0.007 µM	0.771 µM	0.015 µM	–	–	no loss of body weight	1.22 ± 0.09 g	–	–
